From ChEMBL document CHEMBL1152778, “Design, synthesis, and biological evaluation of (2R,alphaS)-3,4-dihydro-2-[3-(1,1,2,2-tetrafluoroethoxy)phenyl]-5-[3-(trifluoromethoxy)-phenyl]-alpha-(trifluoromethyl)-1(2H)-quinolineethanol as potent and orally active cholesteryl ester transfer protein inhibitor” (J Med Chem, 2009)
Calls of active or inactive are those of the source. The rule behind the calls is not given here.

What was measured:
[1] = molecular target: T1, Lipoprotein lipase (Homo sapiens) (UniProt P06858); experiment: Inhibition of lipoprotein lipase activity assessed as release of free fatty acid from hydrolysis of VLDL by cell based assay
T1 sequence (whole entry): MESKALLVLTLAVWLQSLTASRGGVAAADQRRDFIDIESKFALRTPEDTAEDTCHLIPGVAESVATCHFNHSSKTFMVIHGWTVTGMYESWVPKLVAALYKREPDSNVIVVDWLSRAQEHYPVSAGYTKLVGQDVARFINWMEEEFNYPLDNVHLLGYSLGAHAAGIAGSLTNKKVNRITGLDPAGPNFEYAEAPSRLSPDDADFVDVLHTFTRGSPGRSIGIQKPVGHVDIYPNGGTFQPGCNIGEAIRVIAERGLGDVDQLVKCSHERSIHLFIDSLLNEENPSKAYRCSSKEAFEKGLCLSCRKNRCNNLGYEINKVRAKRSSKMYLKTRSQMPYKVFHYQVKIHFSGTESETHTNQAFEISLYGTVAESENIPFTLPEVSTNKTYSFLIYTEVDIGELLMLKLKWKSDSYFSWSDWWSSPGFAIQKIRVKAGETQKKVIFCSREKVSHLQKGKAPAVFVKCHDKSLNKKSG

[2] = Plasma concentration in normal chow diet-fed cynomolgus monkey at 30 mg/kg, po for 5 days; format: ADME, organism-based, Macaca fascicularis; parameters: dose 30 mg/kg, route oral
[3] = test system: Cynomolgus monkey; experiment: Increase in HDLC level in normal chow diet-fed cynomolgus monkey at 30 mg/kg, po for 5 days measured after 10 hrs of last dose; format: functional, Macaca fascicularis
[4] = test system: Cynomolgus monkey; experiment: Ex vivo inhibition of CETP in normal chow diet-fed cynomolgus monkey at 3 mg/kg, po for 5 days by Roar assay; format: functional; conditions: Macaca fascicularis, 120 h
[5] = test system: Cynomolgus monkey; experiment: Ex vivo inhibition of CETP in normal chow diet-fed cynomolgus monkey at 10 mg/kg, po for 5 days by Roar assay; format: functional; conditions: Macaca fascicularis, 120 h
[6] = molecular target: T2, Microsomal triglyceride transfer protein large subunit (Homo sapiens) (UniProt P55157); experiment: Inhibition of microsomal triglyceride transfer protein by cell based assay
T2 sequence (whole entry): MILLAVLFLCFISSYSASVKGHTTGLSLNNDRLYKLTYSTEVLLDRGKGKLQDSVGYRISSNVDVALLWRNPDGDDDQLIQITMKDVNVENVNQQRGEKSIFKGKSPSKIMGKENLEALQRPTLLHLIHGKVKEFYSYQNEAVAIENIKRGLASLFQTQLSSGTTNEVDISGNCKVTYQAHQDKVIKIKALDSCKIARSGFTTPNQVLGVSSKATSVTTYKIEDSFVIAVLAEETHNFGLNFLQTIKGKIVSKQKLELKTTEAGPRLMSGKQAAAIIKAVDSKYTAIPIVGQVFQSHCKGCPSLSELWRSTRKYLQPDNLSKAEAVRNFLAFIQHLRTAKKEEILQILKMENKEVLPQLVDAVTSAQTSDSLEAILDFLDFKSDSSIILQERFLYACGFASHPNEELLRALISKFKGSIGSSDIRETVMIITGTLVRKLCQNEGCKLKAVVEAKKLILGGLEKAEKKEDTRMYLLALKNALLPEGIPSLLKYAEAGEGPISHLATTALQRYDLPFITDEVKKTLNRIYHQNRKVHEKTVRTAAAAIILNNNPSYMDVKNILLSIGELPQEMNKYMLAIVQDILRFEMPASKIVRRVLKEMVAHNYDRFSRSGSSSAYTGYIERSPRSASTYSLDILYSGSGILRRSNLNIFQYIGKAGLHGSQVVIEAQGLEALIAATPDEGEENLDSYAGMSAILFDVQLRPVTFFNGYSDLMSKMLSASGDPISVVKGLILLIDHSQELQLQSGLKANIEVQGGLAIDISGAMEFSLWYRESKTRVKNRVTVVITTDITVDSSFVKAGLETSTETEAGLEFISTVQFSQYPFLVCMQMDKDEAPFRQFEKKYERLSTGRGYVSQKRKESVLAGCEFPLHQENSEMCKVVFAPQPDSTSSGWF

[7] = Plasma concentration in normal chow diet-fed cynomolgus monkey at 3 mg/kg, po for 5 days; format: ADME, organism-based, Macaca fascicularis; parameters: dose 3 mg/kg, route oral
[8] = Plasma concentration in normal chow diet-fed cynomolgus monkey at 10 mg/kg, po for 5 days; format: ADME, organism-based, Macaca fascicularis; parameters: dose 10 mg/kg, route oral
[9] = test system: Cynomolgus monkey; experiment: Increase in HDLC level in normal chow diet-fed cynomolgus monkey at 10 mg/kg, po for 5 days measured after 10 hrs of last dose; format: functional, Macaca fascicularis
[10] = test system: Cynomolgus monkey; experiment: Ex vivo inhibition of CETP in normal chow diet-fed cynomolgus monkey at 30 mg/kg, po for 5 days by Roar assay; format: functional; conditions: Macaca fascicularis, 120 h
[11] = molecular target: T3, Hepatic triacylglycerol lipase (Homo sapiens) (UniProt P11150); experiment: Inhibition of hepatic lipase activity assessed as release of free fatty acid from hydrolysis of VLDL by cell based assay
T3 sequence (whole entry): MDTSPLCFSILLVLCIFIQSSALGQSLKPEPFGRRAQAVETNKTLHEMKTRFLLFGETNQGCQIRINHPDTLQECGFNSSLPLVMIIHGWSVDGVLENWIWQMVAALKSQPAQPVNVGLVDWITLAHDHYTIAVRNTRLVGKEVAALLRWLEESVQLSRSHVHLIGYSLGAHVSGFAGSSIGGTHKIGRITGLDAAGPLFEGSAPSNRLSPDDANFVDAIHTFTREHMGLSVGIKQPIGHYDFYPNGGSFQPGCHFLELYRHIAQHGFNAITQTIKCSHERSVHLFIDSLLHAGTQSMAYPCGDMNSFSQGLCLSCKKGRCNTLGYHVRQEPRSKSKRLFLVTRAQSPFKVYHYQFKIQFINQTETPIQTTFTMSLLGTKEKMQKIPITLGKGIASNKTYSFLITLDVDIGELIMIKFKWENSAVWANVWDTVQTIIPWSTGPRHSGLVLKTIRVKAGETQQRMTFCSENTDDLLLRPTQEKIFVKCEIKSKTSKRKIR

[12] = test system: Mus musculus; experiment: Increase in HDLC level in normal chow diet-fed human CETP transgenic mouse model at 30 mg/kg, po for 5 days measured after 2 hrs of last dose; format: functional
[13] = test system: Hamster; experiment: Increase in HDLC level in high-fat fed hamster model at 30 mg/kg, po for 5 days measured after 2 hrs of last dose; format: functional, Cricetinae
[14] = molecular target: Phospholipid transfer protein (Homo sapiens) (UniProt P55058); experiment: Inhibition of PLTP activity assessed as phosphatidylcholine transferred from [3H]phosphatidylcholine (dipalmitoyl)-labeled liposomes to HDL by cell based liquid scintillation counter
[15] = molecular target: T4, Phosphatidylcholine-sterol acyltransferase (Homo sapiens) (UniProt P04180); experiment: Inhibition of LCAT activity in human plasma assessed as change in cholesteryl ester/free cholesterol ratio by cell based assay
T4 sequence (whole entry): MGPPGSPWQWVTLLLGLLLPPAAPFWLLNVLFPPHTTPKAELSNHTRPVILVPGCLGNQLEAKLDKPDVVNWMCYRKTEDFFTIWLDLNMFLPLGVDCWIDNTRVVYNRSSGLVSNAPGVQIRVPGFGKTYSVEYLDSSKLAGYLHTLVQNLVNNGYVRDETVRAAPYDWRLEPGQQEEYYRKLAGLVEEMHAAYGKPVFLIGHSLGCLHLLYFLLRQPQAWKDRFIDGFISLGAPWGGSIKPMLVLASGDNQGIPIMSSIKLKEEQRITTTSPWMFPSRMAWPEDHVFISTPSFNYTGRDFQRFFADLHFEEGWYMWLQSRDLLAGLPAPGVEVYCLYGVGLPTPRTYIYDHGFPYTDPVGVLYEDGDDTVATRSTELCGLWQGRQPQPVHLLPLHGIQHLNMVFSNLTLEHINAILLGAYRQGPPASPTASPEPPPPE

[16] = molecular target: T5, Endothelial lipase (Homo sapiens) (UniProt Q9Y5X9); experiment: Inhibition of endothelial lipase by cell based assay
T5 sequence (whole entry): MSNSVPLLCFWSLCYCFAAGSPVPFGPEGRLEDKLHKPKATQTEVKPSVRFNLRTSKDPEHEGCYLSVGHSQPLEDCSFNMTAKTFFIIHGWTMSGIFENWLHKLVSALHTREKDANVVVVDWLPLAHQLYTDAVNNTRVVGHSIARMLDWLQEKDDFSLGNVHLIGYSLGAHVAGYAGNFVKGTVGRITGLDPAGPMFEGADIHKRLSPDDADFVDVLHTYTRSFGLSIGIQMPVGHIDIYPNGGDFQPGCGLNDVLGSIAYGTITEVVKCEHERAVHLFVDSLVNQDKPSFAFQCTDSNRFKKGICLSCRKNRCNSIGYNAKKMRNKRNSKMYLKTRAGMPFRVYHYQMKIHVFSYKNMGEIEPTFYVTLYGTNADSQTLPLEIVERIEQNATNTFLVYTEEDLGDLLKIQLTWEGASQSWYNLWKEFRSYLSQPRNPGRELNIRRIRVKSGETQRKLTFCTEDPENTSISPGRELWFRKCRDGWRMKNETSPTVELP

[17] = test system: Cynomolgus monkey; experiment: Increase in HDLC level in normal chow diet-fed cynomolgus monkey at 3 mg/kg, po for 5 days measured after 10 hrs of last dose; format: functional, Macaca fascicularis

Sequence of Phospholipid transfer protein (Homo sapiens) (P55058 whole entry): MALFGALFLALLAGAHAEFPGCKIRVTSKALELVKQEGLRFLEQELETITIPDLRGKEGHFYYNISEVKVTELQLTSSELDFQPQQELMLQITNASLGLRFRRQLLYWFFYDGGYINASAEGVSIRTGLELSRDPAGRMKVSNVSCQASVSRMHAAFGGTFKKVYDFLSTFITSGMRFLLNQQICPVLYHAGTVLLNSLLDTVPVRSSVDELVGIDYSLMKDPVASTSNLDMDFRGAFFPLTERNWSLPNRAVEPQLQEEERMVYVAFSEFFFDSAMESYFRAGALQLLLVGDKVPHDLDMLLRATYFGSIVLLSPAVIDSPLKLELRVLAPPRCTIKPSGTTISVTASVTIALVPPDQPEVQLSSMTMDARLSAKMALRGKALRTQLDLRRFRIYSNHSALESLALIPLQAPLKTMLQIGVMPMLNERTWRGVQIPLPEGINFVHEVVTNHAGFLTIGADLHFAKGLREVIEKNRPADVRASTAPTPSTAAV

In the case of `CCOC(=O)N1c2ccc(C(F)(F)F)cc2[C@@H](N(Cc2cc(C(F)(F)F)cc(C(F)(F)F)c2)C(=O)OC)C[C@H]1CC` [TORCETRAPIB], the Activity [1] is reported as “inactive”, the concentration at 120 h [2] is reported as 2900 nM and the Activity [3] is reported as 44%. The inhibition in vivo at 3 mg/kg [4] was 35%, the inhibition in vivo at 10 mg/kg [5] was 66% and the Activity [6] was “inactive”. The concentration at 120 h [7] was 300 nM, the concentration at 120 h [8] was 1300 nM and the Activity [9] was 41%. The inhibition in vivo at 30 mg/kg [10] was 85%, the Activity [11] was “inactive” and the Activity [12] was 28%. The Activity [13] was 44%, the Activity [14] was “inactive” and the Activity [15] was “inactive”. For the same molecule, the Activity [16] was “inactive” and the Activity [17] was 24%.
